According to patent publication US20240327427A1, “NEW COMPOUNDS FOR THE TREATMENT OF ALZHEIMER'S DISEASE” (Icahn School of Medicine at Mount Sinai, priority 2020, published 2024):

What was measured:
[1] = test system: ATP6V1A; assay: ATP6V1A mRNA (qRT-PCR) and protein (western blot) levels in hiPSC-derived NGN2 neurons (iNs); assay type: cell-based, human
Protocol: To verify this discovery, the inventors measured the transcriptional and translational levels of ATP6V1A in D21 iNs treated with the 3 HDAC inhibitors at a series of concentrations between 1 and 30 μM.
CRISPR inhibition (CRISPRi) was used to repress endogenous ATP6V1A in hiPSC-derived NGN2 neurons. […] Next, the inventors investigated whether LQ081-166 rescued the phenotypes of ATP6V1A deficit and reduced neuronal activity.
Quantitative reverse transcription PCR (qRT-PCR) was performed as previously described. Specifically, cell cultures were harvested with Trizol and total RNA extraction was carried out following the manufacturer's instructions. Quantitative transcript analysis was performed using a QuantStudio 7 Flex Real-Time PCR System with the Power SYBR Green RNA-to-Ct Real-Time qPCR Kit (all Thermo Fisher Scientific). Total RNA template (25 ng per reaction) was added to the PCR mix, including primers listed below. qPCR conditions were as follows; 48° C. for 30 min, 95° C. for 10 min followed by 40 cycles (95° C. for 15 s, 60° C. for 60 s). All qPCR data is collected from at least 3 independent biological replicates of one experiment. Data analyses were performed using GraphPad PRISM 6 software.
Cells were rinsed with ice-cold phosphate-buffered saline (PBS), pelleted, and lyzed in RIPA Lysis and Extraction Buffer (Thermo Fisher Scientific, #89900) containing Halt™ Protease and Phosphatase Inhibitor Cocktail (Thermo Fisher Scientific, #78440). Alternatively, MSBB BM36 brain samples were homogenized with similar methods. Samples were sonicated for 1 minute then centrifuged at 13,000× rpm for 10 min. The supernatant was collected, and total protein concentration was determined using Quick Start™ Bradford Protein Assay (Bio-Rad, 5000201) following the manufacturer's instructions.
Images were captured and quantified using the Odyssey® Imaging Systems (LI-COR. Inc.).
(§1) A stock solution of LQ081-166 (molecular weight: 452.63) at 3 mM is prepared in dimethyl sulfoxide (DMSO). Once prepared, aliquot the stock solution into 100 μL amounts and store at −80° C. Avoid repeated freeze-thaw cycles. The stock is diluted 1000× into neuronal medium to obtain 3 μM for assays. After 24-hour treatment, RNA was extracted from cells for quantitative PCR. In the MEA assay, LQ081-166 was added on neuronal differentiation day 14. Replace with medium containing drug or vehicle every 2-3 days until the final recording day.

[2] = test system: hiPSC-derived NGN2 neurons; assay: Multi-electrode array (MEA) neuronal activity; assay type: cell-based, human; conditions: 3 μM NCH-51
Protocol: To evaluate electrical activity of NGN2-neurons by MEA, density-matched isogenic NGN2-neuronal populations, co-cultured with pHAs, were prepared as described above. Specifically, at day 3, pHAs were split as 17,000 cells/well in a Matrigel-coated 48W MEA plate (Axion Biosystems, M768-tMEA-48W) and maintained as above. At day 7, NGN2-neurons were detached, spun down and seeded on the pHA culture. Outer space of each well in the plate was filled up with autoclaved/deionized water to minimize the evaporation of marginal wells (“edge effect”) during long-term culture. Half volume of neuronal medium (supplemented with 2% FBS) was replaced with fresh medium including 200 nM Ara-C from day 9 until the end of MEA recording. Electrical activity of neurons was recorded daily during day 14-24. On the recording day, the plate was loaded into the Axion Maestro MEA reader (Axion Biosystems). Recording was performed via AxiS 2.4 for 10 mins. Quantitative analysis of the recording was exported as a Microsoft excel sheet. Data were analyzed using GraphPad PRISM 6 software.
as §1

[3] = test system: Aβ42; assay: Aβ42 levels in fly brains (western blot); assay type: in vivo, Drosophila; conditions: Aβ42 flies, fed
Protocol: Aβ42 flies were treated with 0, 10, or 50 μM of NCH-51 during aging to examine its effects on neurodegeneration. […] Western blotting was performed as described previously. To detect human Aβ42, ten fly heads for each genotype were homogenized in Tris-Glycine SDS sample buffer, and the same amount of the lysate was loaded to 18% Tris-Glycine gels and transferred to nitrocellulose membrane. The membranes were boiled in PBS for 3 min, blocked with 5% nonfat dry milk, blotted with the anti-AD 6E10 antibody (Signet, Covance), incubated with appropriate secondary antibody and developed using ECL Western Blotting Detection Reagents (GE Healthcare Life Sciences). The membranes were also probed with anti-tubulin (Sigma-Aldrich) as the loading control in each experiment. To detect human tau, ten fly heads for each genotype were homogenized in Tris-Glycine SDS sample buffer, and the same amount of the lysate was loaded to each lane of 10% Tris-Glycine gels and transferred to nitrocellulose membrane. The membranes were blocked with 5% nonfat dry milk, blotted with the antibodies described below, incubated with the appropriate secondary antibody and developed using ECL Prime Western Blotting Detection Reagent (GE Healthcare Life Sciences). […] Imaging was performed with ImageQuant LAS 4000 (GE Healthcare Life Sciences), and the signal intensity was quantified using Image J (NIH).

CC(C)C(=O)SCCCCCCC(=O)Nc1nc(-c2ccccc2)cs1 [NCH-51]
ATP6V1A mRNA level ([1]; 3 μM, 24-hr, particularly in ATP6V1A KD iNs, P<0.05): dramatically elevates
transcriptional and translational levels of ATP6V1A ([1]; D21 iNs, concentrations between 1 and 30 μM): effectively increased ATP6V1A levels
ATP6V1A protein yield ([1]; iNs, 3 μM): significantly increase the protein yield
ATP6V1A protein level ([1]; iNs, 3 μM, P<0.05): similarly increased
restoration of neuronal activity (MEA) ([2]; ATP6V1A KD iNs): partially restoring neuronal activity
neuronal activity (MEA spike events) ([2]; iNs): potent activator of neuronal activity
Aβ42 levels in fly brains [3]: did not affect
